Results reported in ChEMBL document CHEMBL1201862, “PubChem BioAssay data set” (2004).
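Exposure lasted 48 hours, with cells grown in 96-well plates and compounds tested at five concentrations. Here, GI50 denotes the concentration required for 50% inhibition of growth.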 The source made the active and inactive calls. Rule as the data show it: active = GI50 up to about 1.1 µM and inactive = higher.

Tests used:
Assay in all cases: DTP human tumour cell line panel, 48 h
[1] = test system: 786-0
[2] = test system: EKVX
[3] = test system: HCC 2998
[4] = test system: HCT-116
[5] = test system: HOP-62
[6] = test system: Hs-578T
[7] = test system: IGROV-1
[8] = test system: M14
[9] = test system: NCI-H522
[10] = test system: OVCAR-4
[11] = test system: OVCAR-5
[12] = test system: SF-268
[13] = test system: SK-MEL-5
[14] = test system: SN12C
[15] = test system: SW-620
[16] = test system: U-251
[17] = test system: HOP-92
[18] = test system: Malme-3M

Measured: GI50

CC(C)(CCCCC(C)(C)[N+](C)(C)C)[N+](C)(C)C
inactive: [1] > 100 µM | [2] > 100 µM | [3] > 100 µM | [4] > 100 µM | [5] > 100 µM | [6] > 100 µM | [7] > 100 µM | [8] > 100 µM | [9] > 100 µM | [10] > 100 µM | [11] > 100 µM | [12] > 100 µM | [13] > 100 µM | [14] > 100 µM | [15] > 100 µM | [16] > 100 µM

O=c1c2cc(Cl)ccc2sc2cccc(Cl)c12
inactive: [1] > 100 µM | [2] > 100 µM | [4] > 100 µM | [5] > 100 µM | [17] > 100 µM | [7] > 100 µM | [8] > 100 µM | [9] > 100 µM | [10] > 100 µM | [11] > 100 µM | [12] > 100 µM | [14] > 100 µM | [15] > 100 µM | [16] > 100 µM

COC(=O)CC(C(C(=O)OC)C(=O)OC)N1C(=O)OCC1c1ccccc1 (centres undefined)
inactive: [1] > 100 µM | [2] > 100 µM | [3] 28.5 µM | [4] > 100 µM | [5] > 100 µM | [17] > 100 µM | [7] > 100 µM | [8] > 100 µM | [18] > 100 µM | [9] > 100 µM | [10] > 100 µM | [11] > 100 µM | [12] > 100 µM | [13] > 100 µM | [14] > 100 µM | [15] 43.5 µM | [16] > 100 µM

CC(CO)C1=CC(C#CCOCc2ccccc2)N(C(=O)Oc2ccccc2)c2ccccc21 (centres undefined)
inactive: [1] 28 µM | [2] 10.3 µM | [3] 25.5 µM | [4] 14.8 µM | [5] 29.3 µM | [17] 7.69 µM | [6] 14.3 µM | [7] 28.2 µM | [8] 17.1 µM | [9] 7.73 µM | [10] 3.48 µM | [11] 64.1 µM | [12] 24.9 µM | [13] 21.4 µM | [14] 15.9 µM | [15] 45.5 µM | [16] 34.5 µM

O=C1CSC(c2cccc(Cl)c2)N1c1c(O)c(Cl)cc(Br)c1Cl (centres undefined)
inactive: [1] 25.5 µM | [2] > 100 µM | [4] 15.1 µM | [5] > 100 µM | [17] 15.1 µM | [6] 29.8 µM | [8] > 100 µM | [18] > 100 µM | [10] 14.9 µM | [11] > 100 µM | [12] 57.8 µM | [13] 27.3 µM | [14] 58.5 µM | [15] 17.2 µM | [16] 25.5 µM
